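Grown in 96-well plates, cells were treated for 48 hours with each compound at five concentrations. Insufficient inhibition: endpoint recorded as highest concentration tested. TGI marks complete inhibition of growth.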
test system: NCI-H522 lung; assay: NCI tumour cell line growth inhibition, 48 h

Question: How did the TGI turn out when `COc1c2nc(CCl)[nH]c(=O)c2c(OC)c2nc(CCl)[nH]c(=O)c12` was run?
Answer: > 100 µM

Question: `COc1ccccc1N1C(=O)/C(=C/c2ccc(N(CCC#N)CCC#N)cc2C)N=C1c1cc([N+](=O)[O-])ccc1Cl` was tested. Which TGI did it give?
Answer: > 100 µM

Question: `CCCCCCCCC[C@@H]1CC(=O)OCC2OC(O[C@H](CCCCCCCCC)CC(=O)OCC3OC(O[C@H](CCCCCCCCC)CC(=O)OCC4OC(O1)C(O)C(O)C4O)C(O)C(O)C3O)C(O)C(O)C2O` (some centres not stated) was tested. Which TGI did it give?
Answer: 23.5 µM

Question: How did the TGI turn out when `Cc1cc(Cl)ccc1NC(=O)CCCC(=O)C1CCCC1=O` (configuration not stated) was run?
Answer: > 100 µM

Question: For `COc1ccc(NC(=O)C(=O)C(C(=O)c2ccccc2)C2OC(=O)c3ccccc32)c([N+](=O)[O-])c1` (configuration not stated), which TGI is on record?
Answer: > 100 µM

Question: Which TGI does the source give for `O=C(Nc1ccc(Cl)cc1)C(=O)C(C(=O)c1ccccc1-c1ccccc1)C1OC(=O)c2ccccc21` (configuration not stated) here?
Answer: 28.3 µM

test system: SF-268 CNS; assay: NCI tumour cell line growth inhibition, 48 h

Question: `COc1c2nc(CCl)[nH]c(=O)c2c(OC)c2nc(CCl)[nH]c(=O)c12` was tested. Which TGI did it give?
Answer: > 100 µM

Question: With `COc1ccccc1N1C(=O)/C(=C/c2ccc(N(CCC#N)CCC#N)cc2C)N=C1c1cc([N+](=O)[O-])ccc1Cl` as the molecule, how does the TGI read?
Answer: > 100 µM

Question: With `CCCCCCCCC[C@@H]1CC(=O)OCC2OC(O[C@H](CCCCCCCCC)CC(=O)OCC3OC(O[C@H](CCCCCCCCC)CC(=O)OCC4OC(O1)C(O)C(O)C4O)C(O)C(O)C3O)C(O)C(O)C2O` (some centres not stated) as the molecule, how does the TGI read?
Answer: 7.74 µM

Question: How did the TGI turn out when `COc1ccc(-c2onc(-c3ccc([N+](=O)[O-])cc3)c2C2=NCCN2)cc1` was run?
Answer: > 100 µM

Question: Which TGI does the source give for `Cc1cc(Cl)ccc1NC(=O)CCCC(=O)C1CCCC1=O` (configuration not stated) here?
Answer: > 100 µM

Question: With `COc1ccc(NC(=O)C(=O)C(C(=O)c2ccccc2)C2OC(=O)c3ccccc32)c([N+](=O)[O-])c1` (configuration not stated) as the molecule, how does the TGI read?
Answer: > 100 µM

Question: With `O=C(Nc1ccc(Cl)cc1)C(=O)C(C(=O)c1ccccc1-c1ccccc1)C1OC(=O)c2ccccc21` (configuration not stated) as the molecule, how does the TGI read?
Answer: 64.1 µM

test system: TK-10 renal; assay: NCI tumour cell line growth inhibition, 48 h

Question: How did the TGI turn out when `COc1c2nc(CCl)[nH]c(=O)c2c(OC)c2nc(CCl)[nH]c(=O)c12` was run?
Answer: > 100 µM

Question: Which TGI does the source give for `COc1ccccc1N1C(=O)/C(=C/c2ccc(N(CCC#N)CCC#N)cc2C)N=C1c1cc([N+](=O)[O-])ccc1Cl` here?
Answer: > 100 µM

Question: How did the TGI turn out when `CCCCCCCCC[C@@H]1CC(=O)OCC2OC(O[C@H](CCCCCCCCC)CC(=O)OCC3OC(O[C@H](CCCCCCCCC)CC(=O)OCC4OC(O1)C(O)C(O)C4O)C(O)C(O)C3O)C(O)C(O)C2O` (some centres not stated) was run?
Answer: 23.1 µM

Question: How did the TGI turn out when `Cc1cc(Cl)ccc1NC(=O)CCCC(=O)C1CCCC1=O` (configuration not stated) was run?
Answer: > 100 µM

Question: For `COc1ccc(NC(=O)C(=O)C(C(=O)c2ccccc2)C2OC(=O)c3ccccc32)c([N+](=O)[O-])c1` (configuration not stated), which TGI is on record?
Answer: > 100 µM

Question: For `O=C(Nc1ccc(Cl)cc1)C(=O)C(C(=O)c1ccccc1-c1ccccc1)C1OC(=O)c2ccccc21` (configuration not stated), which TGI is on record?
Answer: 57.3 µM

test system: SK-OV-3 ovarian; assay: NCI tumour cell line growth inhibition, 48 h

Question: `COc1c2nc(CCl)[nH]c(=O)c2c(OC)c2nc(CCl)[nH]c(=O)c12` was tested. Which TGI did it give?
Answer: > 100 µM

Question: How did the TGI turn out when `COc1ccccc1N1C(=O)/C(=C/c2ccc(N(CCC#N)CCC#N)cc2C)N=C1c1cc([N+](=O)[O-])ccc1Cl` was run?
Answer: > 100 µM

Question: `CCCCCCCCC[C@@H]1CC(=O)OCC2OC(O[C@H](CCCCCCCCC)CC(=O)OCC3OC(O[C@H](CCCCCCCCC)CC(=O)OCC4OC(O1)C(O)C(O)C4O)C(O)C(O)C3O)C(O)C(O)C2O` (some centres not stated) was tested. Which TGI did it give?
Answer: 26.5 µM

Question: `Cc1cc(Cl)ccc1NC(=O)CCCC(=O)C1CCCC1=O` (configuration not stated) was tested. Which TGI did it give?
Answer: > 100 µM

Question: For `COc1ccc(NC(=O)C(=O)C(C(=O)c2ccccc2)C2OC(=O)c3ccccc32)c([N+](=O)[O-])c1` (configuration not stated), which TGI is on record?
Answer: > 100 µM

Question: `O=C(Nc1ccc(Cl)cc1)C(=O)C(C(=O)c1ccccc1-c1ccccc1)C1OC(=O)c2ccccc21` (configuration not stated) was tested. Which TGI did it give?
Answer: 64.3 µM

test system: HOP-92 NSCLC; assay: NCI tumour cell line growth inhibition, 48 h

Question: With `COc1c2nc(CCl)[nH]c(=O)c2c(OC)c2nc(CCl)[nH]c(=O)c12` as the molecule, how does the TGI read?
Answer: > 100 µM

Question: With `CCCCCCCCC[C@@H]1CC(=O)OCC2OC(O[C@H](CCCCCCCCC)CC(=O)OCC3OC(O[C@H](CCCCCCCCC)CC(=O)OCC4OC(O1)C(O)C(O)C4O)C(O)C(O)C3O)C(O)C(O)C2O` (some centres not stated) as the molecule, how does the TGI read?
Answer: 22.6 µM

Question: Which TGI does the source give for `COc1ccc(NC(=O)C(=O)C(C(=O)c2ccccc2)C2OC(=O)c3ccccc32)c([N+](=O)[O-])c1` (configuration not stated) here?
Answer: > 100 µM

Question: `O=C(Nc1ccc(Cl)cc1)C(=O)C(C(=O)c1ccccc1-c1ccccc1)C1OC(=O)c2ccccc21` (configuration not stated) was tested. Which TGI did it give?
Answer: 65.6 µM

test system: CAKI-1 renal; assay: NCI tumour cell line growth inhibition, 48 h

Question: How did the TGI turn out when `COc1c2nc(CCl)[nH]c(=O)c2c(OC)c2nc(CCl)[nH]c(=O)c12` was run?
Answer: > 100 µM

Question: Which TGI does the source give for `COc1ccccc1N1C(=O)/C(=C/c2ccc(N(CCC#N)CCC#N)cc2C)N=C1c1cc([N+](=O)[O-])ccc1Cl` here?
Answer: > 100 µM

Question: With `CCCCCCCCC[C@@H]1CC(=O)OCC2OC(O[C@H](CCCCCCCCC)CC(=O)OCC3OC(O[C@H](CCCCCCCCC)CC(=O)OCC4OC(O1)C(O)C(O)C4O)C(O)C(O)C3O)C(O)C(O)C2O` (some centres not stated) as the molecule, how does the TGI read?
Answer: 14.9 µM

Question: With `COc1ccc(-c2onc(-c3ccc([N+](=O)[O-])cc3)c2C2=NCCN2)cc1` as the molecule, how does the TGI read?
Answer: > 100 µM

Question: With `Cc1cc(Cl)ccc1NC(=O)CCCC(=O)C1CCCC1=O` (configuration not stated) as the molecule, how does the TGI read?
Answer: > 100 µM

Question: With `COc1ccc(NC(=O)C(=O)C(C(=O)c2ccccc2)C2OC(=O)c3ccccc32)c([N+](=O)[O-])c1` (configuration not stated) as the molecule, how does the TGI read?
Answer: > 100 µM

Question: With `O=C(Nc1ccc(Cl)cc1)C(=O)C(C(=O)c1ccccc1-c1ccccc1)C1OC(=O)c2ccccc21` (configuration not stated) as the molecule, how does the TGI read?
Answer: 55.7 µM

test system: OVCAR-3 ovarian; assay: NCI tumour cell line growth inhibition, 48 h

Question: For `COc1c2nc(CCl)[nH]c(=O)c2c(OC)c2nc(CCl)[nH]c(=O)c12`, which TGI is on record?
Answer: > 100 µM

Question: How did the TGI turn out when `COc1ccccc1N1C(=O)/C(=C/c2ccc(N(CCC#N)CCC#N)cc2C)N=C1c1cc([N+](=O)[O-])ccc1Cl` was run?
Answer: > 100 µM

Question: `CCCCCCCCC[C@@H]1CC(=O)OCC2OC(O[C@H](CCCCCCCCC)CC(=O)OCC3OC(O[C@H](CCCCCCCCC)CC(=O)OCC4OC(O1)C(O)C(O)C4O)C(O)C(O)C3O)C(O)C(O)C2O` (some centres not stated) was tested. Which TGI did it give?
Answer: 32.1 µM

Question: `COc1ccc(-c2onc(-c3ccc([N+](=O)[O-])cc3)c2C2=NCCN2)cc1` was tested. Which TGI did it give?
Answer: > 100 µM

Question: How did the TGI turn out when `Cc1cc(Cl)ccc1NC(=O)CCCC(=O)C1CCCC1=O` (configuration not stated) was run?
Answer: > 100 µM

test system: SW-620 colon; assay: NCI tumour cell line growth inhibition, 48 h

Question: Which TGI does the source give for `COc1c2nc(CCl)[nH]c(=O)c2c(OC)c2nc(CCl)[nH]c(=O)c12` here?
Answer: > 100 µM

Question: `CCCCCCCCC[C@@H]1CC(=O)OCC2OC(O[C@H](CCCCCCCCC)CC(=O)OCC3OC(O[C@H](CCCCCCCCC)CC(=O)OCC4OC(O1)C(O)C(O)C4O)C(O)C(O)C3O)C(O)C(O)C2O` (some centres not stated) was tested. Which TGI did it give?
Answer: 17.8 µM

Question: How did the TGI turn out when `COc1ccc(-c2onc(-c3ccc([N+](=O)[O-])cc3)c2C2=NCCN2)cc1` was run?
Answer: > 100 µM

Question: How did the TGI turn out when `Cc1cc(Cl)ccc1NC(=O)CCCC(=O)C1CCCC1=O` (configuration not stated) was run?
Answer: > 100 µM

Question: Which TGI does the source give for `COc1ccc(NC(=O)C(=O)C(C(=O)c2ccccc2)C2OC(=O)c3ccccc32)c([N+](=O)[O-])c1` (configuration not stated) here?
Answer: > 100 µM

Question: Which TGI does the source give for `O=C(Nc1ccc(Cl)cc1)C(=O)C(C(=O)c1ccccc1-c1ccccc1)C1OC(=O)c2ccccc21` (configuration not stated) here?
Answer: 46.2 µM
